The source of these data is US9157904B2, “Wnt antagonists and methods of treatment and screening” (OncoMed Pharmaceuticals, Inc., priority 2010, dated 2015).

Data set [1] has as its system PN4 tumors. The data set can be described thus: FACS for ESA, CD44 and CD201 on PN4 tumors treated with variants. It is filed as in vivo, NOD/SCID mice. The conditions noted are these: vs control antibody. As to the method: Pancreatic tumor cells from the tumor-bearing mice described above were harvested and minced into approximately 1 mm^3 fragments, followed by enzymatic digestion at 1 gram per 10 ml of 300 μg/ml collagenase and 200 U/ml DNase I for 2 hours at 37° C./5% CO2 with intermittent mixing with a 10 ml pipet to disperse cells. Digestion was stopped by adding an equal volume of FACS buffer (1× Hanks Buffered Saline Solution (HBSS), 2% heat-inactivated Fetal Calf Serum (FCS) and 2 mM HEPES pH 7.4). Cells were filtered through 40 μm nylon filters and collected by centrifugation at 150×g for 5 minutes. Red blood cells were lysed in a hypotonic buffer containing ammonium chloride for 2 minutes on ice, and the cells were washed again with excess FACS buffer, and resuspended with FACS buffer at 1×10^7 cells/ml.
The freshly prepared single cell suspensions were stained for 20 minutes on ice with biotinylated anti-mouse H-2Kd (clone SF1-1.1, Biolegend, San Diego, Calif.) at 5 μg/ml, biotinylated anti-mouse CD45 (30-F11, Biolegend) at […], and streptavidin-PerCP-Cy5.5 (eBioscience, San Diego, Calif.) at 1:200 dilution. Unbound antibody was removed by washing twice with 10 volume of FACS buffer. […]

Data set [2] has as its system PN21 tumors. The data set can be described thus: Alcian blue and Ki67 staining of treated PN21 tumors. The class given is in vivo, NOD/SCID mice. As to the method: The cell differentiation capability of FZD8-Fc was also evaluated in the OMP-PN21 pancreas tumor xenograft model. PN21 tumors from studies described in Example 8 were harvested and fixed in formalin, embedded in paraffin, and tumor sections of 4 μm thickness were cut. After deparaffinization and hydration, the tumor sections were subjected to an antigen retrieval process in Tris buffer (pH 9.5). Sections were incubated with hydrogen peroxide (Sigma-Aldrich, St Louis, Mo.) for 10 minutes to block endogenous peroxidases. Anti-Ki67 antibody (clone MIB-1, Dako, Carpinteria, Calif.) in blocking buffer (3% NHS, 1% BSA, 0.1% Tween-20 in PBS) at 1:200 dilution was added to each section and incubated for 1 hour. Slides were rinsed 3 times in PBST for 5 minutes each. Anti-mouse secondary antibody conjugated with HRP (ImmPRESS™ anti-mouse, Vector Laboratories Inc., Burlingame, Calif.) was added to the slides and incubated for 30 minutes. After multiple washes with PBST, Vector Nova Red substrate (Vector Laboratories Inc., Burlingame, Calif.) was added for localization of Ki67 antigen. The sections were treated with aqueous acetic acid for 5 minutes at room temperature. The sections were then treated with 1% alcian blue in 3% aqueous acetic acid for 30 minutes and washed with water. Sections were counter-stained in neutral fast red, dehydrated and mounted. […]

Data set [3] relates to PE13 breast tumor. The data set can be described thus: PE13 breast tumor xenograft, tumor growth. The class given is in vivo, NOD/SCID mice. The conditions noted are these: FZD8-Fc 5 mg/kg i.p. twice a week, single agent. As to the method: Dissociated PE13 breast tumor cells (50,000 per animal) were injected subcutaneously into the mammary fat pads of NOD/SCID mice. Mice were monitored weekly and tumors were allowed to grow until they were approximately 106 mm^3. On day 27 post cell injection the mice were randomized into four treatment groups (n=10 mice/group) and treated with control antibody, FZD8-Fc (54F03), taxol or a combination of FZD8-Fc and taxol. Taxol was administered intraperitoneally at a dose of 7.5 mg/kg once a week and FZD8-Fc was administered intraperitoneally at a dose of 5 mg/kg twice a week.

Data set [4] can be described thus: Pharmacokinetics of FZD8-Fc in rat. It is filed as in vivo, Sprague Dawley rats. The conditions noted are these: tail vein, plasma.
Description: The pharmacokinetics of FZD8-Fc (54F03) were assessed in rats in a two week pharmacokinetics (PK) study using doses of 2 mg/kg and 10 mg/kg. Sprague Dawley rats, five males in each group, were dosed with FZD8-Fc via the tail vein at 2 mg/kg or 10 mg/kg and followed for two weeks with samples collected at the time points 1, 24, 48, 72, 96, 168, 240, and 336 hours. At each time point, 1 ml of blood was collected into potassium-EDTA tubes and centrifuged. The plasma supernatants were collected and frozen until the samples were analyzed.
The level of FZD8-Fc fusion protein present in the plasma at each time point was quantified and the half-life of FZD8-Fc was calculated for the two doses.
The test system of data set [5] is C28 colon tumor. The data set can be described thus: C28 colon tumor xenograft, FZD8-Fc variants (Example 14). The conditions noted are these: C28 established tumors; 15 mg/kg i.p. twice a week. It is filed as in vivo, NOD/SCID mice. The protocol: Dissociated C28 colon tumor cells (10,000 cells) were injected subcutaneously into 6-8 week old male NOD/SCID mice. Tumors were allowed to grow for 28 days until they reached an average volume of 145 mm^3. The mice were randomized (n=9 per group) and treated with FZD8-Fc variants or a control antibody at a dose of 15 mg/kg twice a week. Administration of the FZD8-Fc variants and control antibody was performed via injection into the intraperitoneal cavity. Tumor growth was monitored and tumor volumes were measured with electronic calipers at the indicated time points. Data are expressed as mean±S.E.M.

The test system of data set [6] is C28 tumors. The data set can be described thus: CK20 immunohistochemistry of treated C28 tumors. The class given is in vivo, NOD/SCID mice. The conditions noted are these: vs control antibody. The protocol: Control and treated tumors from the C28 xenograft study described above (Example 6) were harvested at the end of the study. The tumors were excised and immunohistochemistry analysis was performed using standard techniques. Briefly, tumors were fixed in formalin, embedded in paraffin, and tumor sections of 4 um thickness were cut. After deparaffinization and hydration, the tumor sections were subjected to an antigen retrieval process in Tris buffer (pH 9.5). Sections were incubated with hydrogen peroxide (Sigma-Aldrich, St Louis, Mo.) for 10 minutes to block endogenous peroxidases. Anti-CK20 (clone Ks20.8, Dako, Carpinteria, Calif.) antibody in blocking buffer at 1:200 dilution (3% NHS, 1% BSA, 0.1% Tween-20, in PBS) was added to each section and incubated for 1 hour. Slides were rinsed 3 times in PBST for 5 minutes each. Anti-mouse secondary antibody conjugated with HRP (ImmPRESS™ anti-mouse Ig, Vector Laboratories Inc., Burlingame, Calif.) was added to the slides and incubated for 30 minutes. After multiple washes with PBST, Vector Nova Red substrate (Vector Laboratories Inc., Burlingame, Calif.) was added for localization of CK20 antigen.

The term half-life denotes the time in which the quantity being followed falls by half.

Turning to “54F03: Fri domain of human FZD8 fused to human IgG1 Fc with GRA linker; SEQ ID NO:1”, in data set [1], the “percentage of CD44^hi cells” value is “decreased the percentage of CD44^hi cells”. For the same substance, the “percentage of CD201^+CD44^+ cells” value in data set [1] is recorded as “decreased the percentage of CD201^+CD44^+ cells”. Further, the “proliferating cells denoted by expression of Ki67” value in data set [2] is “decrease in proliferating cells”. For the same substance, in data set [2] (vs control antibody or gemcitabine alone), the “cells expressing sialomucins (alcian blue)” value is on record as “increase in cells expressing sialomucins”. For the same substance, in data set [3], the “reduction of tumor growth relative to control antibody” value was 20%. Further, the half-life in data set [4] (2 mg/kg) amounted to 163 h; in data set [4] (10 mg/kg) it was 157 h. Also, the “reduction in tumor growth as compared to control antibody” value in data set [5] was “approximately 56%”. The “cells expressing CK20” value in data set [6] is “increase in cells expressing CK20”.
